In patent US6338955B2, “β1-4 N-acetylglucosaminyltransferase and gene encoding” (Kirin Beer Kabushiki Kaisha, priority 1996, dated 2002):
Entries after “also recorded” stand apart in the source; their conditions may differ. Like-named read-outs stand apart in the source and are kept apart here.

Legend:
[1] = molecular target: T1, GnT-IV (Bos taurus, UniProt O77836); assay: Specific assay for GnT-IV activity (pyridylaminated oligosaccharide acceptor, HPLC) with purified enzyme; type: biochemical, bovine; conditions: for Activity (%), Inhibition of GnT-IV by Nucleotides: nucleotide 2 mM in the presence of 0.5 mM UDP-GlcNAc, nothing added = 100%
T1 construct: it is thought that GnT-IV from bovine small intestine is a glycoprotein having at least Asn-linked sugar chains; from tissue; host or cells: bovine small intestine (microsome fraction, Triton X-100 solubilized, purified to Sample 7)
T1 sequence (O77836 93-535 limits assumed): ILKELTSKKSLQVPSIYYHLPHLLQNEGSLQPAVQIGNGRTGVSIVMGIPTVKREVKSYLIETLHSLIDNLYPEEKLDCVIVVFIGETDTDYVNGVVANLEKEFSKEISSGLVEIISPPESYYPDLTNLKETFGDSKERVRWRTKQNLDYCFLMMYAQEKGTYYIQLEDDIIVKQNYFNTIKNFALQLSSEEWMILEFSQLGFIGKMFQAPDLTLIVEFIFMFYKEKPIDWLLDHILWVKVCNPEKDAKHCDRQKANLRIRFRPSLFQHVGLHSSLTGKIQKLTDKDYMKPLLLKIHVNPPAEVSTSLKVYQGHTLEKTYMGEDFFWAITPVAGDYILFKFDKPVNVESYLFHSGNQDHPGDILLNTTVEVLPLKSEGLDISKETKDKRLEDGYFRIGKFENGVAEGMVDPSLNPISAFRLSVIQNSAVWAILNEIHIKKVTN
Procedure: Then, the reaction was terminated by boiling the solution for 2 minutes. […] The fluorescence of pyridylamino groups was detected using excitation at 320 nm and emission at 400 nm.

[2] = molecular target: T2, GnT-IV (Bos taurus, UniProt O77836); assay: Action of GnT-IV on glycoproteins (UDP-[14C]GlcNAc, SDS-PAGE and fluorography); type: biochemical, bovine; conditions: 37° C., 20 hours; FIG. 17 Panel B lanes 2 and 5
T2 construct: it is thought that GnT-IV from bovine small intestine is a glycoprotein having at least Asn-linked sugar chains; from tissue; host or cells: bovine small intestine (microsome fraction, Triton X-100 solubilized, purified to Sample 7)
T2 sequence (O77836 1-535): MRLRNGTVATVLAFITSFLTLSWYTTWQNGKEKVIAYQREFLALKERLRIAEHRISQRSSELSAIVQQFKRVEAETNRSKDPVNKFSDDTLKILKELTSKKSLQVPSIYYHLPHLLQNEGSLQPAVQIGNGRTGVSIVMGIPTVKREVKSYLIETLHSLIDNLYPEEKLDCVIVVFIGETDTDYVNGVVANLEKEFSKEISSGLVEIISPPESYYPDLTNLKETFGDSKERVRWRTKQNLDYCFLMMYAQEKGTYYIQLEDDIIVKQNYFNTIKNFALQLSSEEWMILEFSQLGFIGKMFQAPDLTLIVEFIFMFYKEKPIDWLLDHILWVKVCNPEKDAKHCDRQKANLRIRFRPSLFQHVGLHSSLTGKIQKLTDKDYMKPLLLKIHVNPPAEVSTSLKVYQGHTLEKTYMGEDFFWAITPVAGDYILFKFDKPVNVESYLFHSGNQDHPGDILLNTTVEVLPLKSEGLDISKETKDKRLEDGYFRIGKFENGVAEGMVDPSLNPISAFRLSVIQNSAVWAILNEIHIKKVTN
Procedure: GnT-IV reaction conditions: To 10 μl of a solution containing […] of GnT-IV, a substrate glycoprotein equivalent to 1.6 nmol of biantennary type sugar chains (for fetuin alone, the sugar chain content was 1.6 nmol) and 450 nCi of UDP-[^14C] […] One tenth of the resultant solution was analyzed by SDS-PAGE and fluorography.
For SDS-PAGE, 10-20% gradient gel (Daiichi Kagaku) was used. For fluorography, Amplify (Amersham) was used to expose the samples to X ray film for 20 hours.
GlcNAc as a sugar donor. Then, the reaction products were analyzed by SDS-PAGE and fluorography (Panels A and B, FIG. 17). As shown in lanes 2 and 5 of Panel B in FIG. 17, transfer of [^14 C] GlcNAc to asialo agalacto human transferrin and asialo agalacto, CHO cell-derived recombinant human erythropoietin.

[3] = additive 10 mM added to GnT-IV sample freed of metal ions, activity with 10 mM MnCl2 = 100%

## O=c1ccn([C@H]2C[C@H](O)[C@@H](COP(=O)(O)OP(=O)(O)O)O2)c(=O)[nH]1 [2′-deoxy-UDP]
[1]
  Activity (%), Inhibition of GnT-IV by Nucleotides: 67.4%

## Nc1ccn([C@@H]2O[C@H](COP(=O)(O)OP(=O)(O)O)[C@@H](O)[C@H]2O)c(=O)n1 [CDP]
[1]
  Inhibition of GnT-IV by nucleotides / UDP derivatives: little inhibitory effect; also recorded: do not have inhibitory effect
  Activity (%), Inhibition of GnT-IV by Nucleotides: 112%

## [Ca+2].[Cl-].[Cl-] [CaCl2]
[1]
  Requirement of divalent cation: effect of additive on activity: Weak effect
[1]; [3]
  Activity (%), Divalent Cation Requirement of GnT-IV: 7.2%

## [Cl-].[Cl-].[Co+2] [CoCl2]
[1]
  Activity (%), Divalent Cation Requirement of GnT-IV: 74.8%
  Effect of divalent cation relative to that of Mn2+: about 70%

## [Cl][Cu][Cl] [CuCl2]
[1]; [3]
  Activity (%), Divalent Cation Requirement of GnT-IV: 0%

## [Cl][Fe][Cl] [FeCl2]
[1]
  Requirement of divalent cation: effect of additive on activity: Weak effect
[1]; [3]
  Activity (%), Divalent Cation Requirement of GnT-IV: 9.8%

## [Cl-].[Cl-].[Mg+2] [MgCl2]
[1]; [3]
  Activity (%), Divalent Cation Requirement of GnT-IV: 72.5%

## [Cl][Mn][Cl] [MnCl2]
[1]
  Requirement of divalent cation: effect of additive on activity: greatest effect
[1]; [3]
  Activity (%), Divalent Cation Requirement of GnT-IV: 100%

## Cc1cn([C@H]2C[C@H](O)[C@@H](COP(=O)(O)OP(=O)(O)O)O2)c(=O)[nH]c1=O [TDP]
[1]
  Inhibition of GnT-IV by nucleotides / UDP derivatives: little inhibitory effect; also recorded: do not have inhibitory effect
  Activity (%), Inhibition of GnT-IV by Nucleotides: 110%

## CC(=O)N[C@H]1[C@@H](OP(=O)(O)OP(=O)(O)OC[C@H]2O[C@@H](n3ccc(=O)[nH]c3=O)[C@H](O)[C@@H]2O)O[C@H](CO)[C@@H](O)[C@@H]1O [UDP-GlcNAc]
[1]; GnT-II product type oligosaccharide as receptor substrate, conditions (i)/Reference Example 2, read-out: Km toward UDP-GlcNAc
  Km: 220 µM

## CC(=O)N[C@H]1[C@@H](OP(=O)(O)OP(=O)(O)OC[C@H]2O[C@@H](n3ccc(=O)[nH]c3=O)[C@H](O)[C@@H]2O)O[C@H](CO)[C@H](O)[C@@H]1O [UDP-N-acetylgalactosamine]
[1]
  Activity (%), Inhibition of GnT-IV by Nucleotides: 59.7%

## O=C(O)[C@H]1O[C@H](OP(=O)(O)OP(=O)(O)OC[C@H]2O[C@@H](n3ccc(=O)[nH]c3=O)[C@H](O)[C@@H]2O)[C@H](O)[C@@H](O)[C@@H]1O [UDP-glucuronic acid]
[1]
  Activity (%), Inhibition of GnT-IV by Nucleotides: 92.3%

## NCCCCCCOP(=O)(O)OP(=O)(O)OCC1OC(n2ccc(=O)[nH]c2=O)C(O)C1O (centres unmarked) [UDP-hexanolamine]
[1]
  Activity (%), Inhibition of GnT-IV by Nucleotides: 73.6%

## O=c1ccn([C@@H]2O[C@H](COP(=O)(O)OP(=O)(O)O)[C@@H](O)[C@H]2O)c(=O)[nH]1 [UDP]
[1]
  Inhibition of GnT-IV by nucleotides / UDP derivatives: inhibited the activity of this enzyme most strongly
  Activity (%), Inhibition of GnT-IV by Nucleotides: 27.3%

## O=c1ccn([C@@H]2O[C@H](COP(=O)(O)O)[C@@H](O)[C@H]2O)c(=O)[nH]1 [UMP]
[1]
  Inhibition of GnT-IV by nucleotides / UDP derivatives: little inhibitory effect
  Activity (%), Inhibition of GnT-IV by Nucleotides: 97.3%

## O=c1ccn([C@@H]2O[C@H](COP(=O)(O)OP(=O)(O)OP(=O)(O)O)[C@@H](O)[C@H]2O)c(=O)[nH]1 [UTP]
[1]
  Activity (%), Inhibition of GnT-IV by Nucleotides: 88.2%

## O=c1ccn([C@@H]2O[C@H](CO)[C@@H](O)[C@H]2O)c(=O)[nH]1 [Uridine]
[1]
  Inhibition of GnT-IV by nucleotides / UDP derivatives: little inhibitory effect; also recorded: do not have inhibitory effect
  Activity (%), Inhibition of GnT-IV by Nucleotides: 115%

## OCC(O)CO [glycerol]
[1]
  Stabilization of the enzyme: Stabilizing effect is recognized

## asialo agalacto human transferrin: human transferrin treated with sialidase and β-galactosidase; glycoprotein substrate
[2]
  Transfer of [14C]GlcNAc to glycoprotein by GnT-IV: transfer of [^14 C] GlcNAc

## asialo agalacto, CHO cell-derived recombinant human erythropoietin: recombinant human erythropoietin with high biantennary sugar chain content treated with sialidase and β-galactosidase
[2]
  Transfer of [14C]GlcNAc to glycoprotein by GnT-IV: transfer of [^14 C] GlcNAc
